# Source: patent publication US20250230193A1, “CYCLIC COMPOUND HAVING SELECTIVE KRAS INHIBITORY EFFECT ON HRAS AND NRAS” (CHUGAI SEIYAKU KABUSHIKI KAISHA, priority 2022, published 2025)
# Where a SMILES comes first, the peptide text is derived from it. Bridges are numbered along the chain shown (N, C = ends). [ ]: non-standard residue; d: D form. The star is where a group is joined. hPhe(3,5-F2-4-CF3) = N[C@@H](CCc1cc(F)c(C(F)(F)F)c(F)c1)C(=O)O; NPrPhe(4-CF3) = CCCN[C@@H](Cc1ccc(C(F)(F)F)cc1)C(=O)O; NMeGly(cPent) = CN[C@H](C(=O)O)C1CCCC1; Ac4c(3,3-F2) = NC1(C(=O)O)CC(F)(F)C1; NMeD = CN[C@@H](CC(=O)O)C(=O)O; NMeL = CN[C@@H](CC(C)C)C(=O)O; Morpholide = C1CN(*)CCO1; Aze = O=C(O)[C@@H]1CCN1; Sar = CNCC(=O)O
# What was measured:
# [1] = biological target: GDP-bound NRAS wild-type protein (Homo sapiens, UniProt P01111); test: Binding to NRAS by surface plasmon resonance (SPR), Single Cycle Kinetics; details: for NRAS/KRAS (ratio of KD value with respect to NRAS to KD value with respect to KRAS): GDP-bound NRAS wild-type vs GDP-bound KRAS wild-type
# [2] = biological target: GDP-bound HRAS wild-type protein (Homo sapiens, UniProt P01112); test: Binding to HRAS by surface plasmon resonance (SPR), Single Cycle Kinetics; details: for HRAS/KRAS (ratio of KD value with respect to HRAS to KD value with respect to KRAS): GDP-bound HRAS wild-type vs GDP-bound KRAS wild-type
# [3] = SPR, GDP-bound wild-type proteins
# GDP-bound NRAS wild-type protein, sequence (P01111 whole entry): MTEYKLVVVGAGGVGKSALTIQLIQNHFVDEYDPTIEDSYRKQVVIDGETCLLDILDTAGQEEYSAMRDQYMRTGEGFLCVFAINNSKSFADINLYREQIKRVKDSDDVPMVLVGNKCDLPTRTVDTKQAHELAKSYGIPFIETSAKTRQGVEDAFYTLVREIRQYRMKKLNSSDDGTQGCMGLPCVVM
# GDP-bound HRAS wild-type protein, sequence (P01112 whole entry): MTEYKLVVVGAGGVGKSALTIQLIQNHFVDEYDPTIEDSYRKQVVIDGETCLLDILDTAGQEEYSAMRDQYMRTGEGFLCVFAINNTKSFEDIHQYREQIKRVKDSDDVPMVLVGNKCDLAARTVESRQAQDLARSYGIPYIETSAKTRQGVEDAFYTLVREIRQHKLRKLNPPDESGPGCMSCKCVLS
structure (smiles),measurement,setting,value
"CCCN1C(=O)[C@@H]2CCN2C(=O)CN(C)C(=O)[C@H]([C@@H](C)CC)NC(=O)[C@H](CC(C)C)N(C)C(=O)C[C@@H](C(=O)N2CCOCC2)N(C)C(=O)[C@H](C2CCCC2)N(C)C(=O)C2(CC(F)(F)C2)NC(=O)[C@@H]2CCCN2C(=O)[C@H](CCc2cc(F)c(C(F)(F)F)c(F)c2)NC(=O)CN(C)C(=O)[C@@H]1Cc1ccc(C(F)(F)F)cc1 [PP0802] ([NMeL]I[Sar][Aze][NPrPhe(4-CF3)][Sar][hPhe(3,5-F2-4-CF3)]P[Ac4c(3,3-F2)][NMeGly(cPent)][NMeD]-Morpholide; lactam N-11)",NRAS/KRAS (ratio of KD value with respect to GDP-bound NRAS wild-type protein to KD value with respect to KRAS),[1]; SPR,C (A compound having a KD ratio of 0.1 or more and less than 3 is denoted as C)
same,HRAS/KRAS (ratio of KD value with respect to GDP-bound HRAS wild-type protein to KD value with respect to KRAS),[2]; SPR,B (a compound having 3 or more and less than 10 is denoted as B)
CCC[C@H]1C(=O)N[C@@H]([C@@H](C)CC)C(=O)N2C[C@@H](OC)C[C@H]2C(=O)N(C)[C@H]2C/C=C\CCN(C2=O)[C@@H](Cc2ccc(C)cc2)C(=O)N(C)CC(=O)N[C@@H](CCc2cc(F)c(C(F)(F)F)c(F)c2)C(=O)N2C[C@H](OCC)C[C@H]2C(=O)NC2(CCC2)C(=O)N(C)[C@@H](C2CCCC2)C(=O)N(C)[C@H](C(=O)N(C)C)CC(=O)N1C [PP2550],NRAS/KRAS (ratio of KD value with respect to GDP-bound NRAS wild-type protein to KD value with respect to KRAS),[1]; class symbols,A (a compound having 10 or more and less than 20 is denoted as A)
same,HRAS/KRAS (ratio of KD value with respect to GDP-bound HRAS wild-type protein to KD value with respect to KRAS),[2]; class symbols,B (a compound having 3 or more and less than 10 is denoted as B)
CCO[C@@H]1C[C@H]2C(=O)NC3(CC(C)(C)C3)C(=O)N(C)[C@@H](C(CC)CC)C(=O)N(C)[C@H](C(=O)N(C)C)CC(=O)N(C)[C@@H](C(C)C)C(=O)N[C@@H]([C@@H](C)CC)C(=O)N(C)CC(=O)N(C)[C@H]3C/C=C\CCN(C3=O)[C@@H](Cc3ccc(C)cc3)C(=O)N(C)CC(=O)N[C@@H](CCc3ccc(C(F)(F)F)c(Cl)c3)C(=O)N2C1 [PP2158],NRAS/KRAS (ratio of KD value with respect to NRAS to KD value with respect to KRAS),[1]; SPR,AA (a compound having 20 or more is denoted as AA)
same,HRAS/KRAS (ratio of KD value with respect to HRAS to KD value with respect to KRAS),[2]; SPR,A (a compound having 10 or more and less than 20 is denoted as A)
CCO[C@@H]1C[C@H]2C(=O)NC3(CCC3)C(=O)N(C)[C@@H](C(CC)CC)C(=O)N(C)[C@H](C(=O)N3CCCCC3)CC(=O)N(C)[C@H]3CCCC/C=C/c4ccc(cc4)C[C@@H](C(=O)N(C)CC(=O)N[C@@H](CCc4ccc(Cl)c(Cl)c4)C(=O)N2C1)N1CC/C=C\C[C@@H](C1=O)N(C)C(=O)CN(C)C(=O)[C@H]([C@@H](C)CC)NC3=O [PP3046],NRAS/KRAS (ratio of KD value with respect to GDP-bound NRAS wild-type protein to KD value with respect to KRAS),[1]; [3],AA (a compound having 20 or more is denoted as AA)
same,HRAS/KRAS (ratio of KD value with respect to GDP-bound HRAS wild-type protein to KD value with respect to KRAS),[2]; [3],A (a compound having 10 or more and less than 20 is denoted as A)
CCO[C@@H]1C[C@H]2C(=O)NC3(CCC3)C(=O)N(C)[C@@H](C3CCCC3)C(=O)N(CC)[C@H](C(=O)N3CCOCC3)CC(=O)N(C)[C@@H](CC)C(=O)N[C@@H]([C@@H](C)CC)C(=O)N(C)CC(=O)N(C)[C@H]3CCCCCN(C3=O)[C@@H](Cc3ccc(C(F)(F)F)cc3)C(=O)N(C)CC(=O)N[C@@H](CCc3cc(F)c(C(F)(F)F)c(F)c3)C(=O)N2C1 [PP0944],NRAS/KRAS (ratio of KD value with respect to NRAS to KD value with respect to KRAS),"[1]; KD ratio, SPR",A (a compound having 10 or more and less than 20 is denoted as A)
same,HRAS/KRAS (ratio of KD value with respect to HRAS to KD value with respect to KRAS),"[2]; KD ratio, SPR",A (a compound having 10 or more and less than 20 is denoted as A)
"CCO[C@@H]1C[C@H]2C(=O)NC3(CC(C)(C)C3)C(=O)N(C)[C@@H](C3CCCC3)C(=O)N(C)[C@H](C(=O)N3CCCC3)CC(=O)N(C)[C@H]3CCCCCCc4ccc(cc4)C[C@@H](C(=O)N(C)CC(=O)N[C@@H](CCc4ccc(C(F)(F)F)c(OC)c4)C(=O)N2C1)N1CC/C=C\C[C@@H](C1=O)N(C)C(=O)CN(C)C(=O)[C@H]([C@@H](C)CC)NC3=O [PP3034, (1S,7S,11R,13S,19S,22S,26S,29S,35S,37Z)-19-cyclopentyl-11-ethoxy-7-[2-[3-methoxy-4-(trifluoromethyl)phenyl]ethyl]-3,3′,3′,18,21,25,31,34-octamethyl-29-[(1S)-1-methylpropyl]-22-(pyrrolidine-1-carbonyl)spiro[3,6,9,15,18,21,25,28,31,34,41-undecazapentacyclo[24.15.11.2^43,46.1^35,41.0^9,13]pentapentaconta-37,43(54),44,46(53)-tetraene-16,1′-cyclobutane]-2,5,8,14,17,20,24,27,30,33,55-undecone]",NRAS/KRAS (ratio of KD value with respect to GDP-bound NRAS wild-type protein to KD value with respect to KRAS),[1]; [3],A (a compound having 10 or more and less than 20 is denoted as A)
same,HRAS/KRAS (ratio of KD value with respect to GDP-bound HRAS wild-type protein to KD value with respect to KRAS),[2]; [3],B (a compound having 3 or more and less than 10 is denoted as B)
